Data on 15 molecules can be found in patent publication US4363805A, “Aminodesoxy-1.4;3.6-dianhydrohexitol nitrates and pharmaceutical composition” (Firma Willmar Schwabe, priority 1980, dated 1982).

Each structure is given as a SMILES string. Where only a bound is given, the exact number is not on record here.

Data set [1] can be described thus: Acute toxicity, intravenous, mice. The format is in vivo. Particulars: mouse, in vivo; intravenous, within 24 hours; read-out: Evaluated LD50-range.
Data set [2] relates to female NMRI-albino mice. As to the kind of experiment: Acute toxicity, intravenous, mice. Type of data set: in vivo. The settings on record: within 24 hours.
The test system of data set [3] is narcotised guinea pigs. As to the kind of experiment: Blood pressure experiments on guinea pigs, i.v. Type of data set: in vivo, guinea pig.
Data set [4] deals with mongrel cats. The data set is described as follows: Inotropic and heart-circulatory effectiveness on narcotised cats, intravenous. Type of data set: in vivo, cat. The settings on record: 6 animals; for blood pressure before / dp/dt (inotropism) before / heart frequency before: before administration.

With `O=[N+]([O-])O[C@@H]1CO[C@H]2[C@@H]1OC[C@@H]2NCCCCc1ccccc1` [Example 43, 2-(4-phenylbutylamino)-2-desoxy-1.4;3.6-dianhydro-D-glucitol 5-nitrate], the LD50 (in general, the dose expected to kill half of the subjects tested) at 24 h in data set [1] was no less than 50 mg/kg. The Frequency of death in data set [2] (50 mg/kg i.v.) is listed as 1/3; in data set [2] (100 mg/kg i.v.), 3/3; in data set [2] (200 mg/kg i.v.), 6/6.
As to `O=[N+]([O-])O[C@@H]1CO[C@H]2[C@@H]1OC[C@@H]2NCCCOc1ccccc1` [Example 42, 2-(3-Phenoxypropylamino)-2-desoxy-1.4;3.6-dianhydro-D-glucitol 5-nitrate], the median lethal dose (LD50) at 24 h in data set [1] fell in the range of 50 to 100 mg/kg. Besides, the Frequency of death in data set [2] (50 mg/kg i.v.) is 0/3; in data set [2] (100 mg/kg i.v.) it was 2/3; in data set [2] (200 mg/kg i.v.), 6/6.
Consider `COc1ccccc1OCC(O)CN[C@H]1CO[C@H]2[C@@H]1OC[C@@H]2O[N+](=O)[O-]` (stereo partly drawn) [Example 46, 5-[2-Hydroxy-3-(2-methoxyphenoxy)-propylamino]-5-desoxy-1.4;3.6-dianhydro-L-iditol 2-nitrate], for which, in data set [1], the LD50 at 24 h was 100 to 200 mg/kg. Further, the figures for the Frequency of death in data set [2] (100 mg/kg i.v.) and in data set [2] (200 mg/kg i.v.) were 0/3 and 2/3, respectively.
As to `N[C@H]1CO[C@H]2[C@@H]1OC[C@@H]2O[N+](=O)[O-]` [1 c], in data set [1], the LD50 at 24 h is greater than 200 mg/kg. Further, in data set [2] (200 mg/kg i.v.), the Frequency of death is 0/3.
For `O=[N+]([O-])O[C@H]1CO[C@H]2[C@@H]1OC[C@@H]2NCCCOc1ccc(Cl)cc1` [Example 68, 5-[3-(4-Chlorophenoxy)-propylamino]-5-desoxy-1.4;3.6-dianhydro-L-iditol 2-nitrate], the LD50 at 24 h in data set [1] is roughly 100 mg/kg. Besides, in data set [2] (100 mg/kg i.v.), the Frequency of death is 4/9.
With `COc1ccc(CCCCN[C@H]2CO[C@H]3[C@@H]2OC[C@@H]3O[N+](=O)[O-])cc1` [Example 32, 5-[4-(4-Methoxyphenyl)-butylamino]-5-desoxy-1.4;3.6-dianhydro-L-iditol 2-nitrate], in data set [1], the median lethal dose (LD50) at 24 h lay within 50 to 100 mg/kg. The values for the Frequency of death in data set [2] (50 mg/kg i.v.) and in data set [2] (100 mg/kg i.v.) were 1/10 and 10/10, respectively.
Consider `COc1cccc(OCCCN[C@H]2CO[C@H]3[C@@H]2OC[C@@H]3O[N+](=O)[O-])c1OC` [Example 67, 5-[3-(2,3-Dimethoxyphenoxy)-propylamino]-5-desoxy-1.4;3.6-dianhydro-L-iditol 2-nitrate], for which the LD50 at 24 h in data set [1] is roughly 70 mg/kg. In addition, the Frequency of death in data set [2] (50 mg/kg i.v.) is given as 0/10; in data set [2] (100 mg/kg i.v.) it was 3/3; in data set [2] (200 mg/kg i.v.), 3/3.
Consider `O=[N+]([O-])O[C@H]1CO[C@H]2[C@@H]1OC[C@@H]2NCCCOc1cccc(C(F)(F)F)c1` [Example 58, 5-[3-(3-Trifluoromethylphenoxy)-propylamino]-5-desoxy-1.4;3.6-dianhydro-L-iditol 2-nitrate], for which the LD50 at 24 h in data set [1] is roughly 100 mg/kg. Moreover, in data set [2] (100 mg/kg i.v.), the Frequency of death is recorded as 7/12.
In the case of `CC(=O)Nc1ccc(OCCCN[C@H]2CO[C@H]3[C@@H]2OC[C@@H]3O[N+](=O)[O-])cc1` [Example 73, 5-[3-(4-Acetamidophenoxy)-propylamino]-5-desoxy-1.4;3.6-dianhydro-L-iditol 2-nitrate], the 50% lethal dose (LD50) at 24 h in data set [1] is greater than 200 mg/kg. Also, the Frequency of death in data set [2] (100 mg/kg i.v.) and in data set [2] (200 mg/kg i.v.) was 0/3 throughout.
`COc1cc(OC)cc(OCCCN[C@H]2CO[C@H]3[C@@H]2OC[C@@H]3O[N+](=O)[O-])c1` [Example 66, 5-[3-(3,5-Dimethoxyphenoxy)-propylamino]-5-desoxy-1.4;3.6-dianhydro-L-iditol 2-nitrate]: in data set [1], the LD50 at 24 h was 100 to 200 mg/kg. Besides, the Frequency of death in data set [2] (100 mg/kg i.v.) was 2/10; in data set [2] (200 mg/kg i.v.), 3/3.
With `CCOc1ccccc1OCC(O)CN[C@H]1CO[C@H]2[C@@H]1OC[C@@H]2O[N+](=O)[O-]` (stereo partly drawn) [Example 47, 5-[2-Hydroxy-3-(2-ethoxyphenoxy)-propylamino]-5-desoxy-1.4;3.6-dianhydro-L-iditol 2-nitrate], in data set [3] (0.25 mg/kg i.v.), the blood pressure after came out at 41.25 ± 2.78 mm.Hg and the “blood pressure Δ” value is on record as -5.75 mm.Hg. Moreover, the blood pressure before in data set [3] (0.25 mg/kg i.v., before administration) is listed as 47.00 ± 3.39 mm.Hg. In data set [3] (1.00 mg/kg i.v.), the blood pressure after stood at 33.75 ± 2.02 mm.Hg and the “blood pressure Δ” value is -10.75 mm.Hg. Also, in data set [3] (2.50 mg/kg i.v.), the blood pressure after is 25.75 ± 1.31 mm.Hg and the “blood pressure Δ” value is on record as -13.75 mm.Hg. Moreover, in data set [4] (0.25 mg/kg i.v.), the blood pressure before is given as 125.7 mm.Hg, the “dp/dt (inotropism) before” value was found to be 8333 mm.Hg/sec, the heart frequency before was 187.3 min⁻¹ and the “blood pressure WD” value came out at 3.0 min. Moreover, in data set [4] (0.25 mg/kg i.v.), the blood pressure after amounted to 121.7 mm.Hg, the “blood pressure Δ” value is given as -4.0 mm.Hg, the “dp/dt (inotropism) after” value amounted to 7433 mm.Hg/sec and the “dp/dt (inotropism) Δ” value is listed as -900 mm.Hg/sec. For the same molecule, in data set [4] (0.25 mg/kg i.v.), the “dp/dt WD” value amounted to 3.7 min, the heart frequency after was found to be 188.7 min⁻¹ and the “heart frequency Δ” value was “+1.4 min^-1”. Also, in data set [4] (0.50 mg/kg i.v.), the “blood pressure WD” value is 5.7 min, the blood pressure after came out at 114.2 mm.Hg, the “blood pressure Δ” value is recorded as -11.3 mm.Hg and the “dp/dt (inotropism) after” value worked out at 7150 mm.Hg/sec. Moreover, in data set [4] (0.50 mg/kg i.v.), the “dp/dt (inotropism) Δ” value is recorded as -1417 mm.Hg/sec, the “dp/dt WD” value is 9.5 min, the heart frequency after worked out at 196.0 min⁻¹ and the “heart frequency Δ” value is reported as “+0.3 min^-1”. Moreover, in data set [4] (1.00 mg/kg i.v.), the “blood pressure WD” value is 8.2 min, the blood pressure after turned out to be 100.8 mm.Hg, the “blood pressure Δ” value is -24.3 mm.Hg and the “dp/dt (inotropism) after” value was 5067 mm.Hg/sec. In data set [4] (1.00 mg/kg i.v.), the “dp/dt (inotropism) Δ” value is reported as -2983 mm.Hg/sec, the “dp/dt WD” value amounted to 10.9 min, the heart frequency after is 187.0 min⁻¹ and the “heart frequency Δ” value was -5.0 min⁻¹. For the same molecule, in data set [4] (2.50 mg/kg i.v.), the “blood pressure WD” value was greater than 9.0 min, the blood pressure after amounted to 79.5 mm.Hg, the “blood pressure Δ” value is on record as -45.2 mm.Hg and the “dp/dt (inotropism) after” value worked out at 2933 mm.Hg/sec. Besides, in data set [4] (2.50 mg/kg i.v.), the “dp/dt (inotropism) Δ” value is reported as -4500 mm.Hg/sec, the “dp/dt WD” value is greater than 10 min, the heart frequency after turned out to be 171.7 min⁻¹ and the “heart frequency Δ” value was -20.3 min⁻¹.
On to `O=[N+]([O-])O[C@H]1CO[C@H]2[C@@H]1OC[C@@H]2NCCCCOc1ccccc1` [Example 37, 5-(4-Phenoxybutylamino)-5-desoxy-1.4;3.6-dianhydro-L-iditol 2-nitrate], for which the median lethal dose (LD50) at 24 h in data set [1] was no less than 50 mg/kg. Moreover, the Frequency of death is recorded as 3/10 in data set [2] (50 mg/kg i.v.), 10/10 in data set [2] (100 mg/kg i.v.) and 3/3 in data set [2] (200 mg/kg i.v.).
As for `COc1cccc(OC)c1OCCCN[C@H]1CO[C@H]2[C@@H]1OC[C@@H]2O[N+](=O)[O-]` [Example 65, 5-[3-(2,6-Dimethoxyphenoxy)-propylamino]-5-desoxy-1.4;3.6-dianhydro-L-iditol 2-nitrate], the LD50 at 24 h in data set [1] was roughly 50 mg/kg. For the same molecule, the Frequency of death in data set [2] (50 mg/kg i.v.) is listed as 4/10; in data set [2] (100 mg/kg i.v.), 10/10; in data set [2] (200 mg/kg i.v.) it was 3/3.
`CN(CCCCc1ccccc1)[C@H]1CO[C@H]2[C@@H]1OC[C@@H]2O[N+](=O)[O-]` [Example 22, 5-[N-(4-Phenylbutyl)-N-methylamino]-5-desoxy-1.4;3.6-dianhydro-L-iditol 2-nitrate]: in data set [1], the 50% lethal dose (LD50) at 24 h was no less than 50 mg/kg. Also, the Frequency of death in data set [2] (50 mg/kg i.v.) is on record as 1/3; in data set [2] (100 mg/kg i.v.) it was 3/3; in data set [2] (200 mg/kg i.v.), 6/6.
As to `O=[N+]([O-])O[C@H]1CO[C@H]2[C@@H]1OC[C@@H]2NCCCCCc1ccccc1` [Example 30, 5-(5-Phenylpentylamino)-5-desoxy-1.4;3.6-dianhydro-L-iditol 2-nitrate], in data set [4] (0.25 mg/kg i.v.), the blood pressure before is 105.7 mm.Hg, the “dp/dt (inotropism) before” value stood at 9600 mm.Hg/sec, the heart frequency before was determined as 199.7 min⁻¹ and the “blood pressure WD” value was found to be 9.2 min. Besides, in data set [4] (0.25 mg/kg i.v.), the blood pressure after worked out at 88.2 mm.Hg, the “blood pressure Δ” value is reported as -17.5 mm.Hg, the “dp/dt (inotropism) after” value was 8340 mm.Hg/sec and the “dp/dt (inotropism) Δ” value was -1260 mm.Hg/sec. Besides, in data set [4] (0.25 mg/kg i.v.), the “dp/dt WD” value turned out to be 10.2 min, the heart frequency after was 198.0 min⁻¹ and the “heart frequency Δ” value is -1.7 min⁻¹. Also, in data set [4] (0.50 mg/kg i.v.), the “blood pressure WD” value is 11.2 min, the blood pressure after is on record as 81.8 mm.Hg, the “blood pressure Δ” value is listed as -25.0 mm.Hg and the “dp/dt (inotropism) after” value was determined as 7540 mm.Hg/sec. In addition, in data set [4] (0.50 mg/kg i.v.), the “dp/dt (inotropism) Δ” value was -1820 mm.Hg/sec, the “dp/dt WD” value is given as 13.7 min, the heart frequency after was found to be 200.3 min⁻¹ and the “heart frequency Δ” value was -0.7 min⁻¹. Further, in data set [4] (1.00 mg/kg i.v.), the “blood pressure WD” value stood at 22.2 min, the blood pressure after is listed as 73.3 mm.Hg, the “blood pressure Δ” value is -33.0 mm.Hg and the “dp/dt (inotropism) after” value is on record as 6160 mm.Hg/sec. Further, in data set [4] (1.00 mg/kg i.v.), the “dp/dt (inotropism) Δ” value was -2180 mm.Hg/sec, the “dp/dt WD” value is 23.6 min, the heart frequency after turned out to be 196.0 min⁻¹ and the “heart frequency Δ” value was -2.3 min⁻¹. Moreover, in data set [4] (2.50 mg/kg i.v.), the “blood pressure WD” value is greater than 10 min, the blood pressure after worked out at 60.3 mm.Hg, the “blood pressure Δ” value is -45.8 mm.Hg and the “dp/dt (inotropism) after” value stood at 5840 mm.Hg/sec. In addition, in data set [4] (2.50 mg/kg i.v.), the “dp/dt (inotropism) Δ” value is -2060 mm.Hg/sec, the “dp/dt WD” value is on record as greater than 10 min, the heart frequency after stood at 188.3 min⁻¹ and the “heart frequency Δ” value was -2.0 min⁻¹.
